According to the supplement of paper PMC10307832:

Columns and labels:
Test in all cases: relative viability (nuclei count vs DMSO), 5 days (fraction); higher = more cells survive
[1] = compound: C1=CC2=NC=CN=C2C=C1/C=C/3\C(=O)NC(=O)S3 + N=C(N)NC(=N)NCCc1ccccc1 [Phenformin] (partner 250 µM)
Method in brief: (§1)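 After 5 days of treatment, lung cancer cells in 1536-well plates were fixed and stained in a single step (final 0.05% Triton X-100, 1% formaldehyde, 1 ug/ml Hoechst) and their nuclei counted on 4× images. Treatment had been applied by pin tool the day after seeding as one drug alone or as a fixed anchor-drug dose with five library-drug doses (not always all listed) in √10 steps. Relative viability is the nuclei count of treated wells divided by that of vehicle wells, and values are medians of duplicate plates.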

[2] = compound: CCN1CCN(c2ccc(Nc3cc(N(C)C(=O)Nc4c(Cl)c(OC)cc(OC)c4Cl)ncn3)cc2)CC1 [BGJ398] + CC(=O)Nc1cccc(-n2c(=O)n(C3CC3)c(=O)c3c(Nc4ccc(I)cc4F)n(C)c(=O)c(C)c32)c1 [Trametinib] (partner 0.02 µM)
Method in brief: as §1

[3] = compound: CCN1CCN(c2ccc(Nc3cc(N(C)C(=O)Nc4c(Cl)c(OC)cc(OC)c4Cl)ncn3)cc2)CC1 [BGJ398] + CS(=O)(=O)N1CCN(Cc2cc3nc(-c4cccc5[nH]ncc45)nc(N4CCOCC4)c3s2)CC1 [Pictilisib] (partner 1 µM)
Method in brief: as §1

[4] = compound: CCN1CCN(c2ccc(Nc3cc(N(C)C(=O)Nc4c(Cl)c(OC)cc(OC)c4Cl)ncn3)cc2)CC1 [BGJ398] + O=C(CCCCCCC(=O)Nc1ccccc1)NO [Vorinostat] (partner 1 µM)
Method in brief: as §1

Row | Cell Line | relative viability ([1]; first compound 0.02 µM) | relative viability ([1]; first compound 0.06325 µM) | relative viability ([1]; first compound 0.2 µM) | relative viability ([1]; first compound 0.6325 µM) | relative viability ([1]; first compound 2 µM) | relative viability ([2]; first compound 0.01 µM) | relative viability ([2]; first compound 0.03162 µM) | relative viability ([2]; first compound 0.1 µM) | relative viability ([2]; first compound 0.3162 µM) | relative viability ([2]; first compound 1 µM) | relative viability ([3]; first compound 0.01 µM) | relative viability ([3]; first compound 0.03162 µM) | relative viability ([3]; first compound 0.1 µM) | relative viability ([3]; first compound 0.3162 µM) | relative viability ([3]; first compound 1 µM) | relative viability ([4]; first compound 0.01 µM) | relative viability ([4]; first compound 0.03162 µM) | relative viability ([4]; first compound 0.1 µM) | relative viability ([4]; first compound 0.3162 µM) | relative viability ([4]; first compound 1 µM)
1 | 201T | 0.448 | 0.49 | 0.452 | 0.495 | 0.323 | 0.817 | 0.696 | 0.688 | 0.643 | 0.693 | 0.804 | 0.659 | 0.641 | 0.652 | 0.559 | 1.2 | 0.947 | 0.949 | 0.929 | 0.885
2 | A549 | 0.175 | 0.137 | 0.156 | 0.2 | 0.152 | – | – | – | – | – | 0.486 | 0.475 | 0.453 | 0.535 | 0.596 | – | – | – | – | –
3 | A-427 | 0.291 | 0.247 | 0.374 | 0.332 | 0.261 | 0.624 | 0.595 | 0.585 | 0.427 | 0.438 | 0.622 | 0.644 | 0.506 | 0.334 | 0.158 | 0.909 | 0.953 | 0.895 | 0.698 | 0.713
4 | ABC-1 | 0.265 | 0.316 | 0.215 | 0.231 | 0.259 | – | – | – | – | – | 0.63 | 0.721 | 0.722 | 0.693 | 0.916 | 1.61 | 0.855 | 1.04 | – | 0.937
5 | BEN | 0.253 | 0.3 | 0.247 | 0.275 | 0.272 | 0.84 | 1.02 | 1.03 | 0.899 | 0.952 | 0.491 | 0.609 | 0.534 | 0.478 | 0.473 | 0.533 | 0.557 | 0.594 | 0.553 | 0.544
6 | CAL-12T | 0.577 | 0.479 | 0.562 | 0.517 | 0.546 | 0.302 | 0.428 | 0.315 | 0.404 | 0.308 | 0.423 | 0.441 | 0.532 | 0.409 | 0.342 | 0.666 | 1.08 | 0.703 | 0.895 | 0.941
7 | COR-L23 | 0.459 | 0.455 | 0.46 | 0.43 | 0.425 | 0.512 | 0.64 | 0.63 | 0.486 | 0.68 | 0.691 | 0.826 | 0.788 | 0.808 | 0.87 | 0.443 | 0.52 | 0.445 | 0.485 | 0.484
8 | COR-L 105 | 0.46 | 0.43 | 0.494 | 0.5 | 0.413 | 0.423 | 0.431 | 0.444 | 0.399 | 0.431 | 0.314 | 0.442 | 0.417 | 0.328 | 0.387 | 0.656 | 0.727 | 0.879 | 0.828 | 0.931
9 | Calu-6 | – | – | – | – | – | – | – | – | – | – | 0.848 | 0.987 | 0.935 | 0.898 | 0.991 | – | – | – | – | –
10 | ChaGo-K-1 | 0.45 | 0.466 | 0.516 | 0.35 | 0.369 | 0.876 | 0.914 | 0.871 | 0.922 | 0.929 | 0.802 | 0.702 | 0.561 | 0.608 | 0.314 | 0.67 | 0.775 | 0.706 | 0.802 | 0.794
11 | EBC-1 | – | – | – | – | – | – | – | – | – | – | 0.41 | 0.414 | 0.357 | 0.515 | 0.451 | – | – | – | – | –
12 | EKVX | 0.216 | 0.22 | 0.239 | 0.223 | 0.225 | 0.326 | 0.336 | 0.368 | 0.261 | 0.359 | 0.437 | 0.395 | 0.479 | 0.406 | 0.46 | 0.701 | – | 0.921 | 0.691 | 0.728
13 | EMC-BAC-2 | 0.499 | 0.532 | 0.55 | 0.518 | 0.396 | 0.919 | 0.912 | 0.929 | 0.78 | 0.854 | 0.503 | 0.561 | 0.513 | 0.476 | 0.465 | 0.707 | 0.591 | 0.316 | 0.366 | 0.413
14 | EPLC-272H | 0.259 | 0.302 | 0.371 | 0.26 | 0.297 | 0.302 | 0.345 | 0.282 | 0.194 | 0.198 | 0.323 | 0.296 | 0.255 | 0.255 | 0.18 | 0.531 | 0.395 | 0.261 | 0.5 | 0.578
15 | H3255 | 0.368 | 0.348 | 0.358 | 0.358 | 0.3 | 0.61 | – | 0.702 | – | 0.707 | 0.484 | 0.138 | 0.462 | 0.344 | 0.506 | 0.793 | – | 0.77 | – | 0.795
16 | HARA | 0.451 | 0.384 | 0.395 | 0.428 | 0.422 | 0.778 | 0.41 | 0.43 | 0.604 | 0.437 | 0.346 | 0.426 | 0.371 | 0.283 | 0.185 | 0.63 | 0.51 | 0.669 | 0.598 | 0.593
17 | HCC-15 | 0.497 | 0.471 | 0.488 | 0.457 | 0.336 | 0.331 | 0.401 | 0.378 | 0.433 | 0.393 | 0.67 | 0.703 | 0.79 | 0.805 | 0.723 | 0.809 | 0.795 | 0.779 | 0.824 | 0.759
18 | HCC-44 | 0.314 | 0.212 | 0.202 | 0.153 | 0.122 | 1.01 | 1.03 | 1.03 | 1.04 | 0.949 | 0.544 | 0.671 | 0.682 | 0.602 | 0.401 | 1.12 | 1.14 | 1.14 | 1.1 | 1.09
19 | HCC-78 | 0.597 | 0.592 | 0.698 | 0.698 | 0.368 | 0.55 | 0.868 | 0.858 | 0.696 | 0.619 | 0.184 | 0.217 | 0.188 | 0.194 | 0.221 | 0.427 | 0.417 | 0.518 | 0.481 | 0.577
